Values of other authors, collected in patent US11162142B2, “BCR-ABL1 splice variants and uses thereof” (Quest Diagnostics Investments Incorporated, priority 2010, dated 2021).
Where a name gives a salt, the structure may show the parent alone. Read-outs that look alike come from different tables or passages of the source.

Columns and labels:
CML = details: all stages of CML

Question: For `Cc1ccc(NC(=O)c2ccc(CN3CCN(C)CC3)cc2)cc1Nc1nccc(-c2cccnc2)n1` [imatinib, imatinib mesylate], which “Primary resistance (failure to achieve any hematologic response) rate” value (patients with CML; accelerated-phase CML) is on record?
Answer: 9%

Question: What about the “Secondary resistance (hematologic recurrence) rate” value (patients with CML; accelerated-phase CML) of the same compound?
Answer: 32%

Question: And the “Primary resistance (failure to achieve any hematologic response) rate” value (patients with CML; blast-phase CML)?
Answer: 51%

Question: And the “Secondary resistance (hematologic recurrence) rate” value (patients with CML; blast-phase CML)?
Answer: 41%

Question: And the “Primary resistance (failure to achieve any hematologic response) rate” value (patients with CML; chronic-phase CML)?
Answer: 3%

Question: What about the “Secondary resistance (hematologic recurrence) rate” value (patients with CML; chronic-phase CML) of the same compound?
Answer: 22%

Question: What about the Effectiveness of monotherapy (CML) of the same compound?
Answer: effective for all stages of CML
